{"source": "patent US20120046321A1", "about": "“METHODS OF TREATING ATRIAL FIBRILLATION WITH P38 INHIBITOR COMPOUNDS” (INTERMUNE, INC., priority 2005, published 2012)", "key": {"[1]": {"test_system": "canines with ventricular tachypacing (VTP)-induced congestive heart failure (CHF)", "assay": "AF inducibility in open-chest EP study (single extrastimulus and burst pacing)", "type": "in vivo, canine", "description": "Briefly, 15 adult mongrel canines (weight 20 to 32 kgs) were divided into 3 groups (n=5 in each group) as follows: Group 1: Normal; Group 2: CHF canines not treated with PFD (or CHF); and Group 3: CHF canines treated with PFD (or CHF+PFD). […] The CHF and CHF+PFD canines underwent placement of a permanent single-chamber pacemaker with the pacing lead positioned in the right ventricular apex followed by radiofrequency catheter ablation of the AV junction to create complete heart block. Canines in the CHF and CHF+PFD groups underwent 3 weeks of VTP at a rate of 220 bpm. […] Effective refractory periods (ERPs) were measured at 12 atrial sites (6 in LA, 6 in RA) using the single extrastimulus protocol (S1S2) at an 8-beat drive train basic cycle lengths (BCLs) of 200, 300, and 400 ms. During stimulation of the contralateral Bachmann's bundle, conduction velocity (CV) was calculated between pairs of plaque electrodes perpendicular to the activation wavefront with a custom-written software. […] Two measures were derived to quantify conduction heterogeneity: 1) absolute conduction heterogeneity, defined as P95-P5 (P95-5), and 2) conduction heterogeneity index, defined as the absolute conduction heterogeneity normalized by the median phase, or P95-5/P50. […]"}, "[2]": {"test_system": "TGF-β1", "assay": "Western blot of atrial tissue", "type": "in vivo, canine", "conditions": "CHF+PFD vs CHF"}}, "note": "“Also recorded” adds a separate entry of the source."}
{"molecule": "Cc1ccc(=O)n(-c2ccccc2)c1", "note": "[PFD, 5-methyl-1-phenyl-2-(1H)-pyridone]", "values": [{"measurement": "Mean AF duration", "setting": "[1]; CHF+PFD, p<0.009 vs. CHF (1488±698 secs), Normal 16±25 secs", "result": "12 ± 13", "unit": "s"}, {"measurement": "Sustained AF", "setting": "[1]; open-chest experiments, untreated CHF 4/5, p<0.007", "result": "only observed in the untreated CHF canines"}, {"measurement": "Expression of TGF-β1", "setting": "[2]", "result": "downregulation; also recorded: reduced"}]}
